pEC50: −log10 of the molar value.
Tests used:
AHR [1] = biological target: T1, AHR (Mus musculus, UniProt P30561); experiment: P450 CYP1A1 Luciferase Assay, Hepa1.6 (agonist); assay type: cell-based, murine; details: Hepa1.6, Table 2
T1 sequence (P30561 1-848 F348L/P471L): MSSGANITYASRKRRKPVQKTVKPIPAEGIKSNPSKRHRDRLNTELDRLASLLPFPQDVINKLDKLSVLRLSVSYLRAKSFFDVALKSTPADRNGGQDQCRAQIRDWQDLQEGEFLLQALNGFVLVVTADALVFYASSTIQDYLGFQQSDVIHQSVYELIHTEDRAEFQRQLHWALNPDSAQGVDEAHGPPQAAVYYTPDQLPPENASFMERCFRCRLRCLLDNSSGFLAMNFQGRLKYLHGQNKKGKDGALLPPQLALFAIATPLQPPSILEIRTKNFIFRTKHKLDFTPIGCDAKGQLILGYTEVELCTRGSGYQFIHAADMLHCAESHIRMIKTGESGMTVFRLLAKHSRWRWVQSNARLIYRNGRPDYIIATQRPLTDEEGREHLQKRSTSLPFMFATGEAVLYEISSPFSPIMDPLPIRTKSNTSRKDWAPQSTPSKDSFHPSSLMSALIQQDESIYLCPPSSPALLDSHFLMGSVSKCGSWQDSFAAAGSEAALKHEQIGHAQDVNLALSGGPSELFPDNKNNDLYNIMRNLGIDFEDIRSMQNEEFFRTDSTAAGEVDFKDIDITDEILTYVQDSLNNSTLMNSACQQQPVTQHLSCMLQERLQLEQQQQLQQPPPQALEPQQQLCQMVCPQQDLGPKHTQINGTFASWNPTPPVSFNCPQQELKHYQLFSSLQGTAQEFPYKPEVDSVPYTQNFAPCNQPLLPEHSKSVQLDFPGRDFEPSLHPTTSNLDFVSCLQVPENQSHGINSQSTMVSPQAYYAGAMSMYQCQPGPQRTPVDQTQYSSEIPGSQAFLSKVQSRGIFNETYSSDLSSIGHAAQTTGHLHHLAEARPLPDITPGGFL
Procedure, shortened: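 Murine Hepa1-6 (or other murine/human lines) treated with agonist for 6, 16 or 24 h, then lysed and incubated with luminogenic CYP1A1 substrate (e.g. Luciferin-CEE). Luminescence normalised between no-ligand minimum and reference AHR ligand maximum; EC50 is concentration giving half-maximal activation.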

AHR [2] = biological target: T2, AHR (Homo sapiens, UniProt P35869); experiment: DRE-Luciferase Reporter Assay, HepG2 (agonist); assay type: cell-based; details: HepG2, Table 2; read-out: DRE-Luc HepG2 - Agonist: Average EC50
T2 construct: endogenous in cells; host or cells: HepG2 (human), transfected with a DRE-luciferase reporter only
T2 sequence (P35869 11-848): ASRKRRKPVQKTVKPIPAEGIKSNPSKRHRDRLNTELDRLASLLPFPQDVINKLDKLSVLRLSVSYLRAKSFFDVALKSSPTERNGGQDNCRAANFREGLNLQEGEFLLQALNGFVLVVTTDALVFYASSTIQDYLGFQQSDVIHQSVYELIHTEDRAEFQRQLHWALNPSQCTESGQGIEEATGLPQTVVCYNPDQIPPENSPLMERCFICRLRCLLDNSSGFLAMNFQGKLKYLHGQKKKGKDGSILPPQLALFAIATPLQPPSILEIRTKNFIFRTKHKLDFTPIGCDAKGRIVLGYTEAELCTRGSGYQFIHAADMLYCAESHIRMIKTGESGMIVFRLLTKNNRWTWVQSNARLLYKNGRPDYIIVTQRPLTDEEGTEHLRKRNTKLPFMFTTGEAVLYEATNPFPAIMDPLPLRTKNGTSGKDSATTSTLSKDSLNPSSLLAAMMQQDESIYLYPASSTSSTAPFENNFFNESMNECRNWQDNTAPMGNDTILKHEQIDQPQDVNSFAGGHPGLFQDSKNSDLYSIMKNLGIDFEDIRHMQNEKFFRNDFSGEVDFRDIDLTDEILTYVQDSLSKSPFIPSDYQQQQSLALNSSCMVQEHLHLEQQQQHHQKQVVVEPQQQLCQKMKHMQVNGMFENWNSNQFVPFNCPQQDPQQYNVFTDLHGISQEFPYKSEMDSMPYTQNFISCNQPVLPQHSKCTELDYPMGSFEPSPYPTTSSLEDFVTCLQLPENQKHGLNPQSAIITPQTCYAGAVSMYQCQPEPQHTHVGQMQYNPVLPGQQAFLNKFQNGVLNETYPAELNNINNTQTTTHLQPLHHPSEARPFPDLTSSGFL
Procedure, shortened: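 Cells carrying a stably or transiently transfected DRE-luciferase reporter, plated overnight at 37 C, then given agonist for 6, 16 or 24 h before lysis and luciferase read-out. Signal scaled between no ligand (minimum) and activating ligand alone, e.g. TCDD (maximum); EC50 = concentration giving half-maximal luciferase activity.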

Structure (SMILES)	pEC50 (AHR [1])	pEC50 (AHR [2])
FC(F)(F)c1cccc(Nc2nc(-c3cccc(Cl)c3)cs2)c1 [Compound P-2]	6.00 to 7.00	> 8.00
Nc1cccc(-c2csc(Nc3cccc(C(F)(F)F)c3)n2)c1 [I-10]	6.00 to 7.00	> 8.00

From US12030876B2, “Aryl hydrocarbon receptor (AHR) agonists and uses thereof” (Ikena Oncology, Inc., priority 2019, dated 2024)
